Data set [1] concerns phosphatidylserine (C2) binding site. The data set can be described thus: 3H-DCPLA-ME binding to rat brain slices with competitors, film autoradiography. As for the experimental part: To determine the binding site of DCPLA-ME, ^3H-DCPLA-ME was incubated with rat brain slices in the absence and presence of known C1 and C2 competitors. More specifically, rat brain sections were fixed with formaldehyde, sliced, and incubated with (1) ^3H-DCPLA-ME alone; (2) ^3H-DCPLA-ME with DCPLA; (3) ^3H-DCPLA-ME with Phorbol ester; or (4) ^3H-DCPLA-ME and Bryostatin 1. After incubation, the slices were washed with a buffer made of 130 mM NaCl, 5 mM MgCl, 5 mM KCl, 1 mM EGTA, and 0.1% bovine serum albumin in 10 mM HEPES-NaOH, pH 7.4, dried, and analyzed with film-autoradiography.

In data set [2] the target is T1, PKC-ε (Homo sapiens, UniProt Q02156).
T1 sequence (Q02156 1-737): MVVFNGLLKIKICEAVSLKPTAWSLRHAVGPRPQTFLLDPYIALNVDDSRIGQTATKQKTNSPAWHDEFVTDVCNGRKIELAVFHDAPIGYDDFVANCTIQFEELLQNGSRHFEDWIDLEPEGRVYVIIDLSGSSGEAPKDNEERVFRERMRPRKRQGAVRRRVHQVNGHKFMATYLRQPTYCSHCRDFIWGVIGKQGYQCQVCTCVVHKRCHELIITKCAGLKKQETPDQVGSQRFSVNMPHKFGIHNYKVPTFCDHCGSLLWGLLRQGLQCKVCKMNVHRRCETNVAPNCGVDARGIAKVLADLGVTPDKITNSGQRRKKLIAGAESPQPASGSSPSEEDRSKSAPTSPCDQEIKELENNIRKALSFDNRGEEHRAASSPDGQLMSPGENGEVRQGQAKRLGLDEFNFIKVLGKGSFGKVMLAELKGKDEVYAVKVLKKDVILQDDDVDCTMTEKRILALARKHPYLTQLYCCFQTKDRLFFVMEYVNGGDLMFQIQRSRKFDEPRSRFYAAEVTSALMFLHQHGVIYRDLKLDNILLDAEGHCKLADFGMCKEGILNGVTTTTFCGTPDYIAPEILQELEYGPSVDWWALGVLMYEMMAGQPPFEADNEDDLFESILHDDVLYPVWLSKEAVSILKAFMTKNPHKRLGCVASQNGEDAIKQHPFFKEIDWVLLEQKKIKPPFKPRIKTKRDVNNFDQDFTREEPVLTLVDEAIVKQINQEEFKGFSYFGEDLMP
The data set can be described thus: Activation of purified PKC isozymes, radiometric: PKC-ε. Format: biochemical. To be noted: for Specificity ε/α: Activation of PKC-ε ÷ activation or inhibition of PKCα at 3 × EC50. The method, then:
(§1) To measure PKC, 10 μl of cell homogenate or purified PKC isoform was incubated for 15 min at 37° C. in the presence of 10 μM histones, 4.89 mM CaCl2, 1.2 μg/μl phosphatidyl-L-serine, 0.18 μg/μl 1,2-dioctanoyl-sn-glycerol, 10 mM MgCl2, 20 mM HEPES (pH 7.4), 0.8 mM EDTA, 4 mM EGTA, 4% glycerol, 8 μg/ml aprotinin, 8 μg/ml leupeptin, and 2 mM benzamidine. [γ32P]ATP (0.5 μCi) was added and 32P-phosphoprotein formation was measured by adsorption onto phosphocellulose as described previously. See Nelson et al., J. Neurochemistry, 1995, 65: 2350-2357.
(§2) PKC activity of each compound was measured in the absence of diacylglycerol and phosphatidylserine and PKC-δ and PKC-ε were measured in the absence of added EGTA and CaCl2, as described by Kanno et al., J. Lipid Res., 2006, 47: 1146-1156. Low concentrations of Ca^2+ were needed because high Ca^2+ can interact with the PKC phosphatidylserine binding site and prevents activation. […] To determine their PKC isoform specificity, the compounds were pre-incubated with purified isoforms of PKC for five minutes and the PKC activity was measured radiometrically.
(§3) The activation and PKC isozyme specificity of DCPLA-ethyl ester was measured following the procedures in Example 1(B) and (C), except that 9 ng of the purified isozyme was used and it was pre-incubated for 5 minutes at room temperature (FIG. 3). PKC-ε activation by DCPLA-tert-butyl ester and DCPLA-retinyl ester was measured in the same manner as DCPLA-ethyl ester (FIG. 3).
The EC50 values, PKC specificity, and activation for a select number of DCPLA esters was determined (see Table 1). EC50 values were determined by measuring the lowest concentration that activates by 50% of maximum activation. […] The specificity and activation of PKC by the various esters of DCPLA were calculated from the measurements of activation of PKC isozymes.

For data set [3], the system named is rat primary hippocampal neurons. The data set can be described thus: Neurotoxic effect of Aβ1-42 assemblies, MTT viability. Format: cell-based. To be noted: 20 hr. As for the experimental part: Viability of cells was measured by MTT assay. MTT (3-(4,5-Dimethylthiazol-2-yl)-2,5-diphenyltetrazolium bromide) is a tetrazolium salt that is cleaved to formazan by the succinate dehydrogenase, which is only active in viable cells. After solubilization of the formazan, the amount of dye can be quantified with a microplate reader at 570 nm along with a reference of 630 nm. For MTT assay, 5×104 primary rat hippocampal neurons from 18-day-old embryonic Sprague-Dawley rat brains were plated on each well of 24-well plates coated with poly-D-lysine. After treatment, the cells were washed with 1×PBS and were incubated with 200 μl of 1 mg/ml MTT solution (Sigma, USA) at 37° C. for 2 hr. Then the MTT-solution was removed and the cells were lysed with 200 μl isopropanol containing 0.04 M HCl and 160 mM NaOH for 10 min. Finally, the reading was done at 570 nm and 630 nm. All the samples were done in triplicates and the data was represented as the percentage of control.
To assess the neurotoxic effect of different sized oligomers, rat primary hippocampal neurons were treated with variable concentrations of these Aβ1-42 species for 20 hr. Viability of the treated cells was compared to untreated cells using the MTT assay.

For data set [4], the system named is PKC-ε. The data set can be described thus: PKC-ε translocation to membrane in SH-SY5Y cells (Western blot). In kind it is cell-based, human. To be noted: ASPD; ADDL at 20-fold higher concentrations. The method, then:
Cells were harvested in homogenizing buffer containing 10 mM Tris-Cl (pH 7.4), 1 mM PMSF (phenylmethylsulfonyl fluoride), 1 mM EGTA, 1 mM EDTA, 50 mM NaF, and 20 μM leupeptin and were lysed by sonication. The homogenate was centrifuged at 100,000×g for 15 min at 4° C. to obtain the cytosolic fraction (supernatant) and membrane (pellet). The pellet was resuspended in the homogenizing buffer by sonication. Protein concentration was measured using the Coomassie Plus (Bradford) Protein Assay kit (Pierce, USA). Following quantification, 20 μg of protein from each sample was subjected to SDS-PAGE analysis in 4-20% gradient Tris-Glycine gel (Invitrogen, USA). The separated protein was then transferred to nitrocellulose membrane. The membrane was blocked with BSA at room temperature for 15 min and was incubated with primary antibody over night at 4° C. After the incubation, it was washed three times with TBS-T (Tris Buffered saline-Tween 20) and further incubated with alkaline phosphatase conjugated secondary antibody (Jackson Immunoresearch Laboratories, USA) at 1:10,000 dilution for 45 min. The membrane was finally washed three times with TBS-T and developed using the 1-step NBT-BCIP substrate (Pierce, USA). Western Blot was imaged in the ImageQuant RT-ECL (GE Life Sciences, Piscataway, N.J.) and densitometric quantification was performed using the IMAL software (Blanchette Rockefeller Neurosciences Institute, Morgantown, W. Va.). For translocation assays, PKC activation was represented as the percentage of total protein in the membrane (membrane/cytosol+membrane).
Equal amounts of proteins were loaded in each lane (20 μg) for both the cytosol and membrane fractions. Activation of PKC was calculated as the percentage of total PKC in the membrane (membrane/cytosol+membrane).
A general note: In western blotting, separated proteins are transferred to a membrane and probed.

Data set [5] relates to rat hippocampal primary neurons. The data set can be described thus: Synaptic marker immunofluorescence in rat hippocampal primary neurons. To be noted: 50 nM ASPDs; 1 μM ADDLs; 20 hr. In kind it is cell-based. The method, then: Cells were grown in two chambered slides (Nunc, USA) at low density. For immunofluorescence staining, the cells were washed with PBS (pH 7.4) and fixed with 4% paraformaldehyde for 4 min. Following fixation, the cells were blocked and permeabilized with 5% serum and 0.3% Triton X 100 in 1×PBS for 30 min. The cells were washed three times with 1×PBS and incubated with primary antibodies for 1 hr at 1:100 dilution. The incubation slides were then washed again three times in 1×PBS and were incubated with the FITC anti-rabbit IgG and Rhodamine anti-mouse IgG for 1 hr at 1:400 dilution. The cells were further washed and treated with DAPI (4′,6-diamidino-2′-phenylindole, dihydrochloride) (Thermo Scientific, USA) to stain the nucleus. Finally, the slides were washed and mounted in Pro Long Gold antifade mounting solution (Invitrogen, USA) and were viewed under the LSM 710 Meta confocal microscope (Zeiss) at 350 nm, 490 nm, and 540 nm excitation and 470 nm, 525 nm, and 625 nm emission for DAPI, FITC, and Rhodamine respectively. Six individual fields at 63× oil lens magnification were analyzed for the mean fluorescence intensity (MFI) in each channel. The co-localization correlation generated by the ZEN software (Zeiss).
To estimate the synaptic damage caused by the ASPDs on primary hippocampal neurons, the expression of synaptophysin (a presynaptic marker) and PSD-95 (a postsynaptic marker) was measured by immunofluorescence staining. […] Following a 20 hr incubation period, the cells were stained for nucleus, PSD-95, and synaptophysin. Expression levels were calculated as the change of percentage in mean fluorescence intensity compared to untreated cells.
Primary neurons, treated and untreated, were immunostained for MAP-2, synaptophysin, and PSD-95 to determine the synaptic integrity. […] Following a 20 hr incubation period, the cells were stained for MAP-2, PSD-95, and synaptophysin as described above.

In the next data set the target is PKCα (Homo sapiens, UniProt P17252). The data set can be described thus: Activation of purified PKC isozymes, radiometric: PKC-α. Format: biochemical. As for the experimental part: To measure PKC activity, 10 μg of protein from either cytosol or membrane was incubated for 15 min at 37° C. in the presence of 10 μM histones, 4.89 mM CaCl2, 1.2 μg/μl phosphatidyl-L-serine, 0.18 μg/μl 1,2-dioctanoyl-sn-glycerol, 10 mM MgCl2, 20 mM HEPES (pH 7.4), 0.8 mM EDTA, 4 mM EGTA, 4% glycerol, 8 μg/ml aprotinin, 8 μg/ml leupeptin, 2 mM benzamidine, and 0.5 μCi of [γ-^32P]ATP. [^32P]Phosphoprotein formation was measured by adsorption onto phosphocellulose as described previously. See Nelson et al. (2009) J Biol Chem 284, 34514-34521. For measurements of activation by RA, PKC activity was measured in the absence of diacylglycerol (DAG) and phosphatidylserine, as described by Nelson et al. (2009) J Biol Chem 284, 34514-34521. PKC-δ and PKC-ε were measured in the absence of added EGTA and CaCl^2, as described by Kanno et al. (2006) J Lipid Res 47, 1146-1156. The enzyme was provided as a purified isozyme for in vitro experiments.
as §1, §2, §3

For `CCCC(=O)O[C@@H]1[C@@H](C)[C@@]2(O)[C@@H](C=C(CO)C[C@]3(O)C(=O)C(C)=C[C@@H]23)[C@@H]2C(C)(C)[C@]12OC(=O)CCC` [Phorbol ester (PdBu)], in data set [1], the “3H-DCPLA-ME binding, 30 nM competitor” value is on record as 100% and the “3H-DCPLA-ME binding, 1 μM competitor” value was 81%.
Turning to `CCCCCC1CC1CC1CC1CCCCCCCC(=O)OC/C=C(C)/C=C/C=C(C)/C=C/C1=C(C)CCCC1(C)C` (stereo not shown) [DCPLA-retinyl ester], the response on PKC-ε [2] (lowest concentration that activates by 50% of maximum activation) was half-maximal at 0.01 µM (EC50). For the same molecule, the Activation on PKC-ε [2] (of PKCε at maximum) is given as 129 % of control.
On to `CCCCCCCCC1CC1CCCCCCCCOC(=O)CCCCCCCC1CC1CC1CC1CCCCC` (stereo not shown) [DCPLA-cyclopropanated oleyl ester], for which, on PKC-ε [2], the “PKC-ε activation at peak” value was 140 % of control, the “concentration of maximal activation” value came to 10 nM and the “Specificity ε/α” value is 8.1.
For the molecule `CCCCCC1CC1CC1CC1CCCCCCCC(=O)O` (stereo not shown) [DCPLA, cyclopropanated linoleic acid], at PKC-ε [2], the “Specificity ε/α” value is reported as 7.4. For the same molecule, in data set [1], the “3H-DCPLA-ME binding, 30 nM competitor” value is reported as 86% and the “3H-DCPLA-ME binding, 1 μM competitor” value was determined as 35%.
Take “oAβ <100 kDa: filtrate from the 100 kDa filtration of the ASPD preparation”: the results for the “Viability of primary neuron (Mean ± SEM)” value in data set [3] (50 nM), in data set [3] (500 nM) and in data set [3] (1000 nM) were 76.01 ± 5.54 % of control, 62.94 ± 9.53 % of control and 53.52 ± 2.43 % of control, respectively.
As to “ADDL: Aβ derived diffusible ligands prepared from Aβ1-42”, the entries for the “Viability of primary neuron (Mean ± SEM)” value in data set [3] (50 nM), in data set [3] (500 nM) and in data set [3] (1000 nM) were 91.35 ± 1.44 % of control, 79.01 ± 11.32 % of control and 49.02 ± 7.26 % of control, respectively. Moreover, the viability of neurons in data set [3] (1 μM) amounted to 50.98±3.8%. Also, the PKC-ε membrane translocation with PKC-ε [4] was 80.82±4.025%. Also, in data set [5], the “synaptophysin intensity compared to the control” value amounted to 75.64±4.84%.
For `CCCCC/C=C\C/C=C\CCCCCCCC(=O)O[C@H]1CC[C@@]2(C)C(=CC[C@H]3[C@@H]4CC[C@H]([C@H](C)CCCC(C)C)[C@@]4(C)CC[C@@H]32)C1` [Cholesteryl linoleate, cholesteryl linoleate], at PKC-ε [2], the “PKC-ε activation (in words)” value is “little or no activation”. This molecule also gave a PKC-α activation on PKCα of 20%.
Take `CCCCCC1CC1CC1CC1CCCCCCCC(=O)OCC` (stereo not shown) [DCPLA-ethyl ester]: on PKC-ε [2], the “Specificity ε/α” value is 4.2.

For orientation: EC50 means the concentration that produces a half-maximal response. A higher EC50 goes with weaker potency.

The values above are taken from patent publication US10821079B2, “PKC activators and combinations thereof” (Cognitive Research Enterprises, Inc., priority 2011, dated 2020).
